According to patent publication US20220411381A1, “PYRIMIDINEDIONE DERIVATIVES” (Bayer Aktiengesellschaft, priority 2019, published 2022):
Where two headings read alike, the source gives them in different places.

Assays:
[1] = molecular target: T1, recombinant human BCAT2 enzyme (Homo sapiens, UniProt O15382); assay: In vitro assay 1b: BCAT2 biochemical assay (coupled LeuDH/NADH fluorescence readout); on BCAT2 IC50 [M]: recombinant human BCAT2 0.75 nM
T1 construct: purchased ATGen (South Korea) ATGP1523
T1 sequence (O15382 28-392): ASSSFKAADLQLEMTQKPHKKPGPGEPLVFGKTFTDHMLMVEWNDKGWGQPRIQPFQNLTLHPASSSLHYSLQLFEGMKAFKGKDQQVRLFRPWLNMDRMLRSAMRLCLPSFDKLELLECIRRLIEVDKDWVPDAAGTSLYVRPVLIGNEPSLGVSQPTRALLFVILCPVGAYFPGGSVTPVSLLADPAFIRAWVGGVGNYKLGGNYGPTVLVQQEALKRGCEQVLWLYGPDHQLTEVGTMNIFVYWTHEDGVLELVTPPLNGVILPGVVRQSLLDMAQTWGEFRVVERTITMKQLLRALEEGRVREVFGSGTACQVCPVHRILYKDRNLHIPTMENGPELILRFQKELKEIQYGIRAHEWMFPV
Experimental: (§1) In Vitro Assay 1a and 1b: BCAT1 and BCAT2 Biochemical Assay
(§2) BOAT (Branched chain amino acid transferase) catalyzes transamination of the branched chain amino acid leucine to α-ketoisocaproate (KIC). The BOAT enzymatic reaction was measured in a coupled readout with leucine dehydrogenase (LeuDH) which catalyzes the Nicotinamide adenine dinucleotide (NADH) dependent reduction of KIC to leucine. NADH consumption is measured by fluorescent readout.
(§3) The biochemical reactions were performed at 32° C. in 384-well plates using a reaction volume of 51 μl and the following assay buffer conditions: 50 mM HEPES (2-[4-(2-hydroxyethyl)piperazin-1-yl]ethanesulfonic acid) pH 8.0, 50 mM aqueous solution of ammonium sulfate, 1 mM ethylenediaminetetraacetic acid, 2 mM dithiothreitol, 0.01% bovine serum albumine, 0.005% Brij 35 detergent, 0.5 μM PLP (pyridoxalphosphate), 10 μM NADH, and 50 μM α-ketoglutarate), and 100 μM leucine. […] Test compounds were used in a concentration range between 0.005 and 30 μM. The final DMSO concentration was 2%.
(§4) The reaction was initiated by addition of substrates (Leucine, α-KG, NADH).

U87-MG cells = assay: In vitro assay 2: BCAT cellular assay, leucine in medium of U87-MG cells; format: cell-based; details: 24 hours incubation, leucine level in medium (LeuDH/diaphorase/resazurin readout)
Experimental: (§5) In Vitro Assay 2: BCAT Cellular Assay
(§6) Levels of leucine were measured in medium of different tumor cell lines. The enzyme BOAT (Branched chain amino acid transferase) catalyzes the consumption of leucine.
(§7) Cells (U87-MG and MDA-MB231 from ATCC) were grown in Dulbecco's Modified Eagle Medium (DMEM) containing 10% fetal calf serum. They were harvested by trypsin and seeded into 96-well plates. Cells were incubated overnight at 37° C. in an atmosphere containing 5% carbon dioxide. The next day test compounds were added to each cell well. The final concentration of dimethylsulfoxide (DMSO) was 0.1% and DMSO controls were included. The plates were then placed in an incubator for 24 hours.
(§8) Leucine was measured in an enzymatic readout with leucine dehydrogenase (LeuDH) and diaphorase. Medium is deproteinized with perchloric acid. 30 μl of 1 M aqueous perchloric acid was added to each well and the plates were centrifuged.

[2] = molecular target: T2, recombinant human BCAT1 enzyme (Homo sapiens, UniProt P54687); assay: In vitro assay 1a: BCAT1 biochemical assay (coupled LeuDH/NADH fluorescence readout)
T2 construct: purchased ATGen (South Korea) ATGP1479
T2 sequence (P54687 1-386): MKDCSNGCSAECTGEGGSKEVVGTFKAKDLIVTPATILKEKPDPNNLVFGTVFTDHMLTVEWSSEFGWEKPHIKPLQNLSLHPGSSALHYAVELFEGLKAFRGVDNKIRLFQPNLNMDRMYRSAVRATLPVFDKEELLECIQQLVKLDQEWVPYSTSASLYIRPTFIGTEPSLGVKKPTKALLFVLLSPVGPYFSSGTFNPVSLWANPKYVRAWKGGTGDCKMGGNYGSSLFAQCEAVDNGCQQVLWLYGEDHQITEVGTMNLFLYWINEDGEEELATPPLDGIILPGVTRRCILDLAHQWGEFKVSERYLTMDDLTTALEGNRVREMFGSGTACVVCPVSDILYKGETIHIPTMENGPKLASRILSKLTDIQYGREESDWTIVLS
Experimental: as §1, §2, §3, §4

MDA-MB231 cells = assay: In vitro assay 2: BCAT cellular assay, leucine in medium of MDA-MB231 cells; format: cell-based; details: 24 hours incubation, leucine level in medium (LeuDH/diaphorase/resazurin readout), read-out: MDAMB-231 IC50
Experimental: as §5, §6, §7, §8

[3] = recombinant human BCAT2 […], 32° C., 100 μM leucine, 50 μM α-ketoglutarate, NADH fluorescence over 90 min, read-out: BCAT2 IC50
[4] = recombinant human BCAT1 […], 32° C., 100 μM leucine, 50 μM α-ketoglutarate, NADH fluorescence over 90 min, read-out: BCAT1 IC50

IC50 [1, 3] [M]	IC50 (U87-MG cells; Homo sapiens, U-87 MG, 24 h) [µM]	IC50 [2, 4] [M]	IC50 (MDA-MB231 cells; Homo sapiens, MDA-MB-231, 24 h) [µM]	IC50 (MDA-MB231 cells) [µM]	SMILES	IC50 ([1]; BCAT2 IC50 [M]) [M]	IC50 (U87-MG cells) [µM]	IC50 ([2]; BCAT1 IC50 [M]) [M]
5.9e-06	> 30	9e-07			COc1cc(C#N)c(Oc2ccccc2C)cc1-n1c(=O)cc(C(N)=O)[nH]c1=O (racemic) [Example 73, 1-[4-Cyano-2-methoxy-5-(2-methylphenoxy)phenyl]-2,6-dioxo-1,2,3,6-tetrahydropyrimidine-4-carboxamide (rac)]			
	> 30	1.75e-06	> 30		Cc1ccccc1Oc1cc(-n2c(=O)cc(C(=O)NCC(F)(F)F)[nH]c2=O)c(F)cc1C#N [Example 71, 1-[4-Cyano-2-fluoro-5-(2-methylphenoxy)phenyl]-2,6-dioxo-N-(2,2,2-trifluoroethyl)-1,2,3,6-tetrahydropyrimidine-4-carboxamide]			
5.5e-06		5e-07	> 30		Cc1cccc(N)c1Oc1cc(-n2c(=O)cc(C(F)(F)F)[nH]c2=O)c(F)cc1C#N [Example 65, 2-(2-Amino-6-methylphenoxy)-4-[2,6-dioxo-4-(trifluoromethyl)-3,6-dihydropyrimidin-1(2H)-yl]-5-fluorobenzonitrile]			
	2.95	1.35e-06	30		Cc1ccccc1Oc1cc(-n2c(=O)cc(C(F)(F)C(F)(F)F)[nH]c2=O)c(F)cc1C#N [Example 52, 4-[2,6-dioxo-4-(pentafluoroethyl)-3,6-dihydropyrimidin-1(2H)-yl]-5-fluoro-2-(2-methylphenoxy)benzonitrile]			
4.15e-06		6.97e-07	25		Cc1cccc(C)c1Oc1cc(-n2c(=O)cc(C(F)(F)F)[nH]c2=O)ccc1C#N [Example 48, 2-(2,6-Dimethylphenoxy)-4-[2,6-dioxo-4-(trifluoromethyl)-3,6-dihydropyrimidin-1 (2H)-yl]benzonitrile]			
2.3e-05		2.35e-06		27	COc1cc(C#N)c(Oc2ccccc2C)cc1-n1c(=O)cc(Br)[nH]c1=O (single isomer, unassigned) [Example 20, 4-[4-Bromo-2,6-dioxo-3,6-dihydropyrimidin-1(2H)-yl]-5-methoxy-2-(2-methylphenoxy)benzonitrile (atrop 1)]			
4.93e-06		6.98e-07	> 30		Cc1ccccc1Oc1cc(-n2c(=O)cc(-c3ccccc3)[nH]c2=O)c(F)cc1C#N [Example 49, 4-(2,6-Dioxo-4-phenyl-3,6-dihydropyrimidin-1(2H)-yl)-5-fluoro-2-(2-methylphenoxy)benzonitrile]			
3.5e-06	6.2	2.8e-07			COc1cc(Cl)c(Oc2ccccc2C)cc1-n1c(=O)cc(C(F)F)[nH]c1=O (racemic) [Example 28, 3-[4-Chloro-2-methoxy-5-(2-methylphenoxy)phenyl]-6-(difluoromethyl)pyrimidine-2,4(1H,3H)-dione (rac)]			
3.2e-06		6.5e-07	> 30		Cc1ccccc1Oc1cc(-n2c(=O)cc(C(F)(F)F)[nH]c2=O)cnc1C#N [Example 47, 5-[2,6-Dioxo-4-(trifluoromethyl)-3,6-dihydropyrimidin-1(2H)-yl]-3-(2-methylphenoxy)pyridine-2-carbonitrile]			
	> 30	4.5e-06			COc1cc(C#N)c(Oc2ccccc2C)cc1-n1c(=O)cc(-c2ccc(C(F)(F)F)cc2)[nH]c1=O (racemic) [Example 69, 4-{2,6-Dioxo-4-[4-(trifluoromethyl)phenyl]-3,6-dihydropyrimidin-1(2H)-yl}-5-methoxy-2-(2-methylphenoxy)benzonitrile (rac)]			
2.5e-05		2e-06	> 30		Cc1ccccc1Oc1cc(-n2c(=O)cc(C3CC3)[nH]c2=O)c(F)cc1C#N [Example 72, 4-(4-Cyclopropyl-2,6-dioxo-3,6-dihydropyrimidin-1(2H)-yl)-5-fluoro-2-(2-methylphenoxy)benzonitrile]			
					Cc1ccccc1Oc1cc(-n2c(=O)cc(C(F)(F)F)[nH]c2=O)c(C)cc1C#N (single isomer, unassigned) [Example 8, 4-[2,6-Dioxo-4-(trifluoromethyl)-3,6-dihydropyrimidin-1 (2H)-yl]-5-methyl-2-(2-methylphenoxy)benzonitrile (atrop 1)]	9e-06	6	1.1e-06
					Cc1ccccc1Oc1cc(-n2c(=O)cc(C(F)(F)F)[nH]c2=O)c(C)cc1C#N (single isomer, unassigned) [Example 9, 4-[2,6-Dioxo-4-(trifluoromethyl)-3,6-dihydropyrimidin-1(2H)-yl]-5-methyl-2-(2-methylphenoxy)benzonitrile (atrop 2)]	9e-07	1.5	8e-08
1e-05		7.25e-07	> 30		COc1cc(C#N)c(Oc2ccccc2C)cc1-n1c(=O)cc(-c2ccccc2)[nH]c1=O (racemic) [Example 42, 4-(2,6-Dioxo-4-phenyl-3,6-dihydropyrimidin-1(2H)-yl)-5-methoxy-2-(2-methylphenoxy)benzonitrile (rac)]			
5e-06	3.6	7.5e-07			COc1cc(Cl)c(Oc2ccccc2Cl)cc1-n1c(=O)cc(C(F)(F)F)[nH]c1=O (racemic) [Example 50, 3-[4-Chloro-5-(2-chlorophenoxy)-2-methoxyphenyl]-6-(trifluoromethyl)pyrimidine-2,4(1H,3H)-dione (rac)]			
4.33e-06		4.38e-07	> 30	20	COc1cc(Cl)c(Oc2ccccc2C)cc1-n1c(=O)cc(C(F)(F)F)[nH]c1=O (racemic) [Example 27, 3-[4-Chloro-2-methoxy-5-(2-methylphenoxy)phenyl]-6-(trifluoromethyl)pyrimidine-2,4(1H,3H)-dione (rac)]			
3.5e-06		2e-07	> 30		COc1cc(C#N)c(Oc2ccccc2C)cc1-n1c(=O)cc(Br)[nH]c1=O (racemic) [Example 19, 4-[4-Bromo-2,6-dioxo-3,6-dihydropyrimidin-1(2H)-yl]-5-methoxy-2-(2-methylphenoxy)benzonitrile (rac)]			

SMILES	IC50 [1, 3] [M]	IC50 (U87-MG cells; Homo sapiens, U-87 MG, 24 h) [µM]	IC50 [2, 4] [M]	IC50 (MDA-MB231 cells; Homo sapiens, MDA-MB-231, 24 h) [µM]	IC50 (MDA-MB231 cells) [µM]	IC50 ([1]; BCAT2 IC50 [M]) [M]	IC50 (U87-MG cells) [µM]	IC50 ([2]; BCAT1 IC50 [M]) [M]
COc1cc(C#N)c(Oc2ccccc2C)cc1-n1c(=O)cc(C(F)(F)F)[nH]c1=O (single isomer, unassigned) [Example 5, 4-[2,6-Dioxo-4-(trifluoromethyl)-3,6-dihydropyrimidin-1(2H)-yl]-5-methoxy-2-(2-methylphenoxy)benzonitrile (atrop 1)]		6						1.13e-07
Cc1ccccc1Oc1cc(-n2c(=O)cc(C(F)(F)F)[nH]c2=O)c(C)cc1C#N (racemic) [Example 7, 4-[2,6-Dioxo-4-(trifluoromethyl)-3,6-dihydropyrimidin-1(2H)-yl]-5-methyl-2-(2-methylphenoxy)benzonitrile (rac)]				30	> 30	1.8e-06		2.87e-07
